Holding throughout (type): cell-based, human
Series [1] deals with K562 cells. Put plainly: trypan blue exclusion, K562. The following applies: K562, 25 μg/ml taurolidine. How it is done:
FIGS. 6A and 6B depict cell viability and growth rates for K562 cell line following taurolidine treatment, in terms of % trypan blue negative cells and % cell number, respectively. Cells were treated with various concentrations of taurolidine for 4 hours in AIM-V+0.01% BCS. After aliquots were collected for LDH assay, the remainder of the culture was rinsed in HBSS and resuspended in RPMI+10% BCS without taurolidine. Counts of trypan blue-negative cells (FIG. 6A), and total cell number (FIG. 6B), were recorded daily thereafter (with the measurement at Day 1 being made immediately after the 4 hour taurolidine treatment). […] Doubling times were determined under each condition, and expressed as a percentage of the rate of doubling of untreated cells. […]
In these experiments, integrity of cell membranes following taurolidine treatment was assessed by exclusion of trypan blue and by measuring the release of LDH in MM6, K-562, HL-60, and REH cells. […] A parallel aliquot of cells was lysed by three cycles of freeze/thaw and the quantity of LDH released was taken to be 100%. […]
HL-60 cells treated with 50 μl taurolidine. In these samples, LDH present in the culture medium was 8.3±2.3% of that released by completely lysed cells, compared with 2.3±0.8% measured in control cultures. […]

Series [2] is described as follows: TUNEL / propidium iodide flow cytometry, PBMC all cells, culture medium. Conditions: human, pbmc, PBMC all cells, 6 h, mean ± SD of two experiments, read-out: % Propidium Iodide Positive. How it is done:
(§1) FIG. 14A and FIG. 14B are terminal deoxytransferase-mediated deoxyuridine-triphosphate-biotin nick end labeling assay (TUNEL) analyses of control cells and taurolidine-treated PBMC, respectively. Cells were incubated with 100 μg/ml taurolidine for six hours and processed for TUNEL analysis as given below. Parallel samples were stained with FITC-conjugated anti-CD14 and propidium iodide (PI) as described below. Ten thousand events were recorded per sample. TUNEL signal (x-axis) is a measure of DNA fragmentation, which FSC (y-axis) is related to cell size. TUNEL-negative lymphocytes are bounded by the rectangle R1, while TUNEL-negative monocytes (CD14 positive cells) are bounded by the rectangle R2. The vertical line indicates demarcation between TUNEL-negative and TUNEL-positive cells. There were minimal numbers of PI-positive cells in the six hour samples (see Table IV).
(§2) In the second method, DNA fragmentation was detected via TUNEL assay according to the manufacturer's instructions. With this methodology, 2×10^6 cells were fixed with 2% paraformaldehyde, permeabilized with 0.1% Triton X-100/0.1% citrate, incubated at 37° C. with terminal deoxynucleotidyl transferase and FITC-dUTP, rinsed and analyzed by flow cytometry. Enhanced FITC signal indicates apoptosis-specific DNA fragmentation. Gavriali, et al, "Identification of programmed cell death in situ via specific labeling of nuclear DNA fragmentation," J Cell Biol 119:493 (1992). Parallel aliquots of unfixed cells were treated with PI and FITC-conjugated anti-CD14 and analyzed by flow cytometry, in order to identify cells with permeable cell membranes (since PI binds to DNA but is excluded from cells with intact plasma membranes) and also to determine the cell-specificity of the apoptotic signal.
(§3) A Becton-Dickinson FACSCalibur instrument was used for flow cytometric analysis of cells. Assessment of cell diameter (forward scatter; FCS) and granularity (side scatter; SSC).was carried out on unfixed cells. Discrimination between lymphocytes and monocytes was made possible by their characteristic differences in FSC and SSC, and confirmed by staining monocytes with FITC-labeled anti-CD14 antibodies and lymphocytes with a combination of FITC-conjugated anti-CD3 and PE-conjugated anti-CD19. After incubation with taurolidine (with or without concomitant LPS treatment), cells were rinsed twice in phosphate-buffered saline containing 0.1% bovine serum albumin (PBSA) and 1×10^6 cells were resuspended in 0.1 ml PBSA. After 5 μl FITC-conjugated anti-CD14 was added, cells were incubated in the dark on ice for 15 minutes and then centrifuged at 250×g. Cells were resuspended in 500 μl PBSA containing 5 μg/ml PI and subjected to flow cytometry.
(§4) Consequently, TUNEL analysis was performed on PBMC at 3, 6, or 24 hours after treatment with 25 to 100 μg/ml taurolidine. Aliquots of harvested cells were also labeled with FITC-conjugated anti-CD14 antibodies and PI, which allowed identification of monocytes (CD14-positive cells) and cells with damaged cell membranes (PI-positive cells). […] Thus, nearly 75% of the monocytes were TUNEL-positive following treatment with 100 μg/ml taurolidine for six hours. Confirmation that the TUNEL-positive cells were monocytes was obtained by staining with FITC-conjugated anti-CD14.
(§5) ^a Analysis by flow cytometry after staining cells with FITC-conjugated
(§6) anti-CD14 and PI, and processing for TUNEL. Data are mean ± SD of two
A general note: A flow cytometer gives signals particle by particle.

Series [3] relates to PBMC. Described as above. Conditions: PBMC. How it is done:
as §1, §2, §3, §4, §5, §6

Series [4] deals with REH. Put plainly: TUNEL / propidium iodide flow cytometry, REH. How it is done: as §2
In another study, TUNEL assays were performed on all cell lines 6 hours after cells were initially exposed to taurolidine (cells were treated for 4 hours, rinsed, and then incubated for 2 more hours before TUNEL assay was performed).
. Taurolidine and anisomycin induced apoptosis in MM6, HL-60, and Jurkat cells (Table VIII). MM6 and HL-60 cells were similarly effected, with >80% TUNEL-positive cells after 6 hours. Jurkat cells were less sensitive, with approximately 50% of cells induced to undergo apoptosis after taurolidine treatment. After 6 hours, 73% of anisomycin-treated REH cells were apoptotic, with less than 20% of taurolidine-treated REH cells being TUNEL-positive. However, assay of cells 24 hours after
^a Analysis by flow cytometry after staining cells with propidium
iodide and processing for TUNEL.
Data are percent of total cell-size events, and are expressed as mean ±
Cells were treated for 4 hours with taurolidine (100 μg/ml) or
anisomycin (1 μg/ml), and then assayed at 6 hours.
Data are percent of total cell-sized events, and are expressed as mean ±
anisomycin (1 μg/ml), and then assayed at 24 hours.

Read-outs that look alike come from different tables or passages of the source.

`O=S1(=O)CCN(CN2CCS(=O)(=O)NC2)CN1` [taurolidine, 4,4'-methylenebis(perhydro-1,2,4-thiadiazin 1,1-dioxide)]: the “trypan blue staining after treatment” value in series [1] is reported as “did not show an increase in trypan blue staining”. Besides, the values for the cytotoxicity at 6 h in series [2] (25 μg/ml), in series [2] (50 μg/ml) and in series [2] (100 μg/ml) were 9 ± 3.2%, 12.2 ± 5.6% and 9 ± 3.5%, respectively. Moreover, the “TUNEL-positive PBMC” value in series [3] (100 μg/ml, 6 h) is listed as “substantial population of TUNEL-positive cells”; in series [3] (3 h incubation), “relatively few”. Moreover, the “PI-positive cells versus control” value in series [3] (taurolidine, 6 h) is recorded as “equivalently low levels of PI-positive cells”. Further, in series [4], the “rate of apoptosis induction versus anisomycin” value is reported as “less rapidly than with anisomycin treatment”. Besides, the “% TUNEL-positive” value in series [4] (taurolidine 100 μg/ml or anisomycin 1 μg/ml for 4 h, assayed at 24 hours, mean ± SD) worked out at 81.4 ± 4.4%.
